Values of other authors as cited in PMC3865603 (Cancer chemotherapy and pharmacology, 2011).

How the values were obtained:
[1] = cited from earlier work
patients = conditions: cited from earlier work
tubulin in PBMCs = conditions: ixabepilone RP2D 40 mg/m^2, 1 h after infusion, n = 27; cited from earlier work

SMILES	in vivo activity relative to other epothilones [1]	neurotoxicity in phase II trials (patients)	DLTs (patients)	mean MBF (tubulin in PBMCs)
C/C1=C/C[C@@H](/C(C)=C/c2csc(C)n2)OC(=O)C[C@H](O)C(C)(C)C(=O)[C@H](C)[C@@H](O)[C@@H](C)CCC1 [KOS-862, Desoxyepothilone B]	greater activity compared with ixabepilone and patupilone	significant neurotoxicity	–	–
C/C(=C\c1csc(C)n1)[C@@H]1C[C@@H]2O[C@]2(C)CCC[C@H](C)[C@H](O)[C@@H](C)C(=O)C(C)(C)[C@@H](O)CC(=O)O1 [patupilone]	–	–	diarrhea, peripheral neuropathy, and fatigue	–
C=CC[C@H]1C(=O)C(C)(C)[C@@H](O)CC(=O)O[C@H](c2ccc3sc(C)nc3c2)C[C@@H]2O[C@]2(C)CCC[C@H](C)[C@@H]1O [sagopilone]	–	–	peripheral neuropathy, infection, hyponatremia, diarrhea, and central ataxia	–
C/C(=C\c1csc(C)n1)[C@@H]1C[C@@H]2O[C@]2(C)CCC[C@H](C)[C@H](O)[C@@H](C)C(=O)C(C)(C)[C@@H](O)CC(=O)N1 [Ixabepilone, ixabepilone]	–	–	neutropenia, neuropathy, and abdominal pain/nausea	63%
